Compared with `CN(CCCCOCC(=O)O)c1nnc(-c2ccccc2)c(-c2ccccc2)n1`, `CCOC(=O)CCCOc1cccc(-c2n[nH]c3c2Cc2ccccc2-3)c1` is higher in melting point: 108 to 110 °C for the first, 142 to 148 °C for the second.

First: CC(=O)C1(Nc2ccccc2)CCN(CCc2ccccc2)CC1
Second: Cc1cccc(C(=O)CC(Cc2ccccc2)C(=O)O)c1 (stereo unspecified)
The melting point of the first is lower: 101 °C for the first, 158 to 161 °C for the second.

First: CCn1ncc2c3ncn(Cc4ccccc4)c(=O)c3cnc21
Second: CC(C)Nc1c(-c2ccc(S(C)(=O)=O)cc2)cnn(Cc2ccccc2)c1=O
The melting point of the first is higher: 198 to 200 °C for the first, 146 to 147 °C for the second.

First: Nc1nnc(-c2ccnc3[nH]c(CCc4ccccc4)cc23)o1
Second: COc1cc(Nc2nccc(C(=O)Nc3ccccc3)n2)cc(OC)c1OC
The melting point of the first is higher: 234 to 235 °C for the first, 158 to 159 °C for the second.

First: CCN1C=C(C(=O)O)C(=O)CC1c1ccc(OC)cc1 (stereo unspecified)
Second: COc1ccc2cc(C(C)C(=O)NCCN(O)C(N)=O)ccc2c1 (stereo unspecified)
The melting point of the first is higher: 173 to 174 °C for the first, 162 °C for the second.

First: COc1ccc(C=CC(=O)C(CCC(=O)O)(Cc2ccccc2Cl)c2ccccc2)cc1 (stereo unspecified)
Second: COc1ccc(Cn2nnc(-c3cccc(C(=O)NCc4ccc(C(=O)O)cc4)c3)n2)cc1
The melting point of the first is lower: 152 to 157 °C for the first, 202 to 205 °C for the second.

First: O=c1c2cccc(O)c2nc(-c2ccc(O)cc2)n1-c1ccc(OCCCl)cc1
Second: O=C(COc1ccc(C(=O)OCc2ccccc2)cc1)NN=C1C(=O)Nc2ccc(I)cc21
The melting point of the first is higher: 274 to 276 °C for the first, 221 °C for the second.

First: O=C1c2ccccc2C(=O)N1OCCBr
Second: O=C1c2ccccc2S(=O)CC1(CO)CO (stereo unspecified)
The melting point of the first is lower: 98 °C for the first, 108 to 111 °C for the second.

Compared with `CN(C)CCc1c[nH]c2ccc(Br)cc12`, `CCN(CC)CCNC(=O)c1nc2ccc(I)cc2[nH]1` is higher in melting point: 82 to 85 °C for the first, 136 to 138 °C for the second.

First: CCCCCCOc1cc(C(=O)O)cc(N)c1C(=O)c1ccccc1
Second: CCCCCCCCCCCCC[C@@H](CC(N)=O)OC(=O)[C@H](CCCC(=O)OCc1ccccc1)NC(=O)c1cnc2ccccc2c1
The melting point of the first is higher: 168 °C for the first, 85 to 87 °C for the second.

First: COc1ccccc1Oc1c(NS(=O)(=O)c2ccc(C(C)(C)C)cc2)nc(SC)nc1OCCOc1ncc(Br)cn1
Second: COC(=O)c1ccc(OCCCN2CCC(C(O)(c3ccc(F)cc3)c3ccc(F)cc3)CC2)c(OC)c1
The melting point of the first is lower: 117 to 121 °C for the first, 131 to 132 °C for the second.

Compared with `CC1(C)C(C=CC(=O)OC2CC2)C1C(=O)OC(C#N)c1cccc(Oc2ccccc2)c1` (stereo unspecified), `CC1(C)Oc2ccc(C#Cc3ccccc3)cc2[C@@H](N)[C@@H]1O` (relative stereo) is higher in melting point: 62 °C for the first, 162 to 164 °C for the second.

Compared with `CC(C)(C)OC(=O)N1CCC[C@H]1C(=O)OCCCNc1cccc2c1C(=O)c1ccccc1C2=O`, `CC(C)(C)OC(=O)[C@@H]1CCCN2C(=O)CC[C@H](NC(=O)c3ccccc3)C(=O)N12` is lower in melting point: 121 °C for the first, 74 to 76 °C for the second.

First: CCN1C(C(=O)Nc2coc3ccccc3c2=O)C(=O)c2ccccc2S1(=O)=O (stereo unspecified)
Second: O=S(=O)(c1ccccc1)n1ccc2c(CO)cccc21
The melting point of the first is higher: 235 to 237 °C for the first, 89 to 91 °C for the second.

Compared with `COc1cc2c(cc1OC)CC(C#N)=C2`, `COc1ccc(Cc2nc(NCCO)c3c(C)c(C#N)sc3n2)cc1OC` is higher in melting point: 140 to 141 °C for the first, 149 to 151 °C for the second.

Compared with `CNC(=O)C(C)Nc1nc(-c2ccc(F)c3ccccc23)cc(C(C)C)n1` (stereo unspecified), `CCCNC(=O)c1c(OCc2ccc(-c3ccccc3-c3nnn[nH]3)cc2)cc(C)nc1C` is higher in melting point: 141 to 142 °C for the first, 196 to 198 °C for the second.

First: COCCOc1ccccc1OCC(O)CN1C(C)CCCC1C (stereo unspecified)
Second: COc1ccc(C2=NN(c3ccccc3)C(=O)[C@H]3CCCC[C@@H]23)cc1OC (relative stereo)
The melting point of the first is lower: 92 to 94 °C for the first, 122 to 124 °C for the second.

Compared with `CC(=CC#N)Cn1sc2ccccc2c1=O`, `CN(C)C(=O)N(C)c1nnc(SCc2ccccc2)s1` is lower in melting point: 128 to 130 °C for the first, 48 to 51 °C for the second.

Compared with `CCOC(=O)c1ccc(NC(=O)C(COc2cccnc2)NS(=O)(=O)c2ccc(Cl)cc2)cc1` (racemic), `CS(=O)(=O)c1ccc(C(=O)c2ccc(Cl)cc2)cc1` is higher in melting point: 119 to 124 °C for the first, 176 °C for the second.

Compared with `CCCC1=C(O)C(C(=O)CC)C(=O)OC1=O` (stereo unspecified), `CCCCc1cc2cc(NS(C)(=O)=O)ccc2o1` is lower in melting point: 149 to 150 °C for the first, 105 to 106 °C for the second.

First: COc1cc(CO)ccc1OCc1nc(-c2cccc(C#N)c2)oc1C
Second: Cc1oc(-c2ccccc2)nc1CCSc1ccc(OC(C)(C)C(=O)O)cc1
The melting point of the first is higher: 113 to 115 °C for the first, 104 to 106 °C for the second.

Compared with `O=C(NN1CCOCC1)c1ccc(O)c(Br)c1`, `O=C(c1ccc(Br)cc1)c1ccc(N2CCOCC2)cc1` is lower in melting point: 216 to 218 °C for the first, 178 to 179 °C for the second.

First: COC(=O)CCCCCOC1OC(CO)C(O)C(O)C1NC(C)=O (stereo unspecified)
Second: CCOc1ccc(C2=NN(CCCCCC(=O)O)C(=O)[C@H]3CC=CC[C@@H]23)cc1OCC (relative stereo)
The melting point of the first is higher: 154 to 155 °C for the first, 97 to 99 °C for the second.

Compared with `CCOCCOc1ccc(-c2ccc3c(c2)C=C(C(=O)Nc2ccc(CN(C)C4CCOCC4)cc2)CCS3(=O)=O)cc1OCCOCC`, `CNC(=O)c1cc(OC)c(-c2ccc(C[C@H](NC(=O)c3c(Cl)cccc3Cl)C(=O)O)cc2)c(OC)c1` is higher in melting point: 150 to 151 °C for the first, 251 to 252 °C for the second.

First: CCc1cccc2c(/C=C(\C)C(=O)O)cc(OC)c(OCOC)c12
Second: CCCCOc1cc(OCCCc2cn(-c3ccc(C(F)(F)F)cn3)nc2OCC)ccc1CCC(=O)O
The melting point of the first is higher: 127 to 128 °C for the first, 123 to 124 °C for the second.

First: CCOC(=O)CCCn1c(Nc2c(C)nn(C)c2C)nc2c(Cl)ccc(C(CC)CC)c21
Second: CCOC(=O)Cn1c(=O)c2cc(CBr)ccc2n(Cc2ccc(Cl)c(Cl)c2)c1=O
The melting point of the first is higher: 177 to 178 °C for the first, 128 to 129 °C for the second.

First: COc1ccc(C2=NN(C(c3ccccc3)c3ccccc3)C(=O)[C@H]3CCCC[C@@H]23)cc1OC (relative stereo)
Second: N#CCOc1ccc2cc(-c3cnc(-c4cn(Cc5ccccc5)c5ccccc45)o3)ccc2c1
The melting point of the first is lower: 133 to 135 °C for the first, 205 to 208 °C for the second.

First: COc1ccc(N2N=C3c4cc(Cl)ccc4SCCC3CC2=O)cc1 (stereo unspecified)
Second: O=c1c2c([nH]n1-c1ccc(Cl)cc1)-c1ccccc1SC2
The melting point of the first is lower: 159 to 161 °C for the first, 235 to 237 °C for the second.

Compared with `CC(=O)OC/C=C(\C)CCc1c(C)c(O)c(C)c(C)c1O`, `CC(C)(C)c1cc(C2SCC(=O)N2CCC(=O)O)cc(C(C)(C)C)c1O` (stereo unspecified) is higher in melting point: 94.5 to 96 °C for the first, 164 to 165 °C for the second.

Compared with `Cc1ccc(S(=O)(=O)OCC2Cc3c(Cl)cc4c(c3O2)CCC4)cc1` (stereo unspecified), `Cc1cccc(-c2cc(Cl)cc3c2OC(CN=[N+]=[N-])C3)c1` (stereo unspecified) is lower in melting point: 95 to 97 °C for the first, 48 to 50 °C for the second.

First: COc1cccc(CNc2nccc(-c3cc(N4CCN(CCCN5CCC5)CC4)c4cc(OC)ccc4c3)n2)c1
Second: CN1CCN(CC2CCCCN2CC(=O)N2c3ccccc3NC(=O)c3ccccc32)CC1 (stereo unspecified)
The melting point of the first is lower: 122 to 130 °C for the first, 200 to 202 °C for the second.

First: CC(C)C1C(=O)N(CC(=O)O)C(c2ccccc2)=CN1C(=O)c1cccnc1 (racemic)
Second: Cc1ccc(C(=O)NC(NC(=S)Nc2ccccc2)C(F)(F)F)cc1 (stereo unspecified)
The melting point of the first is higher: 230 to 240 °C for the first, 205 to 206 °C for the second.

First: C[C@@H]1S[C@@H](C(=O)Nc2ccc(CN3C(=O)CSC3=O)cc2)Cc2cc3c(cc2C1=O)OCO3
Second: Cc1cccc(NCC(=O)Nc2ccc(S(N)(=O)=O)cc2Cl)c1
The melting point of the first is higher: 232 to 235 °C for the first, 185 to 189 °C for the second.

First: C=CC(=O)Oc1c(C(C)c2cc(C(C)(C)C)cc(C(C)(C)C)c2O)cc(C(C)(C)C)cc1C(C)(C)C (stereo unspecified)
Second: CCON=C(CC)C1=C(O)CC(c2ccc(Sc3ncc(C(F)(F)F)cc3F)cc2)CC1=O (stereo unspecified)
The melting point of the first is higher: 190 to 192 °C for the first, 91 to 92 °C for the second.

First: CCCCCCCCCCCCCCOc1ccc(NC(=O)Nc2cccc(CBr)c2)cc1
Second: CCCCCCCCCCCCCCCc1ccc(CO)c(O)c1
The melting point of the first is higher: 164 to 169 °C for the first, 94 to 95 °C for the second.

First: Fc1ccc(Oc2ccnc3c(Cl)cccc23)c(Cl)c1
Second: Cc1c(Cl)cccc1S(=O)(=O)Nc1ccc2nccnc2c1
The melting point of the first is lower: 99 to 101 °C for the first, 166 to 167 °C for the second.

`CC1CCCCN1CCNc1ccnc2cc(Cl)ccc12` (racemic) and `Cn1ccnc1C(=O)Nc1ccc(-n2nc(C(F)(F)F)cc2C2CC2)cc1` cannot be ordered by melting point: 133 to 134 °C for the first, 132 to 134 °C for the second.

Compared with `Cc1nnc(SCC(=O)C23CC4CC(CC(C4)C2)C3)n1Cc1ccc(Cl)cc1`, `CC(Cc1ccc(C(=O)N[C@@H](CCC(=O)O)C(=O)O)cc1)C1CNc2nc(N)nc(O)c2C1` (stereo partly specified) is higher in melting point: 158 to 159 °C for the first, greater than 250 °C for the second.

First: CCSC(N)=C(C#N)C(N)=S
Second: C=C(C)Cn1c(=O)n(C)c(=O)c2c[nH]nc21
The melting point of the first is lower: 200 to 201 °C for the first, 232 to 233 °C for the second.

First: Cc1ccsc1C(=O)Cc1ccc(C(F)(F)F)cc1[N+](=O)[O-]
Second: N=C(NO)c1ccc(-c2ccc([N+](=O)[O-])c(C(F)(F)F)c2)o1
The melting point of the first is lower: 120 to 122 °C for the first, 221 °C for the second.

First: CC1(C)CCC(=O)Nc2ccc([N+](=O)[O-])cc21
Second: O=C1CN(c2cccc(CF)c2)NC(=O)N1
The melting point of the first is higher: 208 °C for the first, 169 to 170 °C for the second.

First: CCCCc1nc(-c2ccc(C(=O)NCCC(C)(C)C)cc2)no1
Second: O=C(CCc1conc1-c1ccc(Cl)cc1)NCc1cccc(C(F)(F)F)c1
The melting point of the first is lower: 78 to 80 °C for the first, 80 to 81 °C for the second.

Compared with `COc1ccc(Cn2nnnc2S(=O)(=O)c2ccc(C)cc2)cc1`, `N#CCCCCCc1nc(-c2ccc(Cl)cc2)c(-c2ccc(Cl)cc2)o1` is lower in melting point: 125 to 126 °C for the first, 108 °C for the second.

Compared with `CCC1(C)C(=O)c2cc(OC)c(Cl)c(Cl)c2C1=O` (stereo unspecified), `COc1ccnc2c1C(=O)CC(c1ccccc1)C2` (stereo unspecified) is lower in melting point: 157 °C for the first, 130 to 131 °C for the second.

First: N#CN1CCC(C2(O)c3ccccc3CCc3ccc(F)cc32)CC1 (stereo unspecified)
Second: O=C(O)c1cn(C2CC2)c2c(F)c(N3CC(n4ccnn4)C3)c(F)cc2c1=O
The melting point of the first is lower: 250 °C for the first, 315 to 316 °C for the second.

First: O=C(Cc1ccc(OCc2ccccc2)cc1)Nc1nnc(-c2cccc(Oc3cccc(C(F)(F)F)c3)c2)s1
Second: c1cc(CSSc2nc3ccccc3s2)cc(CSSc2nc3ccccc3s2)c1
The melting point of the first is higher: 194 to 195 °C for the first, 94 to 96 °C for the second.

Compared with `CCCCNC1CC(C)(C)N(CCO)C(C)(C)C1`, `O=C(c1nnn(Cc2cc(C(F)(F)F)cc(C(F)(F)F)c2)c1-n1ccnc1)c1c(CO)noc1-c1ccccc1Cl` is higher in melting point: 106 to 111 °C for the first, 149 °C for the second.

First: O=c1oc(-c2cc(C(F)(F)F)cc(C(F)(F)F)c2)ns1
Second: C=CC=Cc1cc(Oc2cnc(N)nc2N)c(I)cc1C
The melting point of the first is lower: 61 to 62.5 °C for the first, 195 to 197 °C for the second.

From a melting point compilation (Tetko et al.; mined from patent text by program, amines drawn as free bases though some values may be those of a salt)
